Reference: publication PMC12670160, “A drug-repurposing screen of FDA- and EMA-approved drugs identifies two NF-κB inhibitors active against eumycetoma” (Journal of Antimicrobial Chemotherapy, 2025)
In brackets after ≈: the same amount, converted by molar mass. Structures can show the parent of a compound that is named as a salt. Where two headings read alike, the source gives them in different places.

What was measured:
[1] = tested on: M. mycetomatis; assay: In vitro susceptibility, averages over M. mycetomatis isolates (average metabolic activity at 2 µM, mean MIC); assay type: cell-based; conditions: Madurella mycetomatis, 96 h, 4 days at 37°C, CellTiter-Glo, average of 3 isolates, 20% or below = inhibition
Protocol: M. mycetomatis isolate MM55 was used to screen the Oncode library. This strain was kindly provided by Prof. […] The three M. mycetomatis isolates were identified by ITS sequencing and maintained at −80°C at Erasmus MC. Prior to in vitro screening, isolates were cultured on Sabouraud agar plates (BD, Erembodegem, Belgium) at 37°C.
The Oncode Drug Repurposing library was based on the drug repurposing library from the Drug Repurposing Hub of the Broad Institute and recreated by the Oncode institute.[13] […] Each well of the 384-well plates contained 0.6 µL of a 200 µM stock concentration of compound, resulting in a final concentration of 2 µM when the fungus was added. […] Furthermore, this concentration could also be reached in the G. mellonella larvae.[8],[11] The prepared 384-well plates were transferred on dry ice to the Erasmus MC and stored at −80°C until they were screened.
Each plate also contained a growth control (60 µL of M. mycetomatis hyphal suspension, plus 0.6 µL of DMSO) and a negative control (60 µL of culture medium, plus 0.6 µL of DMSO). Plates were then incubated for 4 days at 37°C, after which 30 µL of CellTiter-Glo 3D Cell Viability reagent was added to every well.[19] After 25 min of incubation at room temperature, the luminescence was measured with a CytoFluor Series 4000 luminometer (PerSeptive Biosystems, Framingham, MA, USA). To determine the metabolic activity, the following formula was used:
Percentagemetabolicactivity=(Absorbancetestluminensence−AbsorbanceNCluminensence/AbsorbanceGCluminensence−AbsorbanceNCluminensence)×100
where, GC is growth control and NC is negative control. The luminescence measured for the GC is considered as 100% metabolic activity. The luminescence for the NC is considered as 0% metabolic activity.

[2] = tested on: M. mycetomatis strain mm55; assay: IC50 and MIC determination, CellTiter-Glo, strain mm55; assay type: cell-based, Madurella mycetomatis; conditions: for IC50: concentration inhibiting 50% of fungal hyphae growth; for MIC: concentration with complete growth inhibition
[3] = tested on: M. mycetomatis strain P1; assay: IC50 and MIC determination, CellTiter-Glo, strain P1; assay type: cell-based, Madurella mycetomatis
[4] = tested on: M. mycetomatis strain I1; assay: IC50 and MIC determination, CellTiter-Glo, strain I1; assay type: cell-based, Madurella mycetomatis
[5] = tested on: M. mycetomatis; assay: In vitro susceptibility, averages over M. mycetomatis isolates (average metabolic activity at 2 µM, mean MIC); assay type: cell-based, Madurella mycetomatis; conditions: for MIC: Madurella mycetomatis, mean/average over strains MM55, P1 and I1; for Average metabolic activity at 2 µM (%): 4 days at 37°C, CellTiter-Glo, average of 3 isolates, 20% or below = inhibition
[6] = tested on: M. mycetomatis; design: method as in PMID 35398930, PMID 15793113, PMID 36005544, PMID 34181477, PMID 22964246; conditions: against M. mycetomatis; cited from earlier work
[7] = tested on: healthy uninfected G. mellonella larvae
Protocol: (§1) For in vivo experiments, sixth-week instar G. mellonella larvae were purchased from Blue-Lagoon, Maassluis, The Netherlands. The larvae were raised and kept in the dark at room temperature. Larvae without any discoloration and weighing around 500 mg were selected for experiments.
To determine the toxicity, 15 healthy uninfected larvae were injected with 20 µL of 20 µM compound as previously described.[16] […] As a control, a separate group of larvae were injected with 20 µL of PBS. Larvae were housed in Petri dishes with Whatman paper at 37°C in the dark. Survival was monitored for 10 days.

[8] = tested on: M. mycetomatis MM55-infected G. mellonella larvae; assay: Therapeutic efficacy in M. mycetomatis-infected G. mellonella larvae (survival, log-rank); assay type: in vivo, Galleria mellonella; conditions: 10 days
Protocol: as §1
The wet weight was determined and 10 mL of PBS per gram of mycelia was added. The suspension was then sonicated for 2 min to achieve a particle size of 10 µm. The fungal suspension (4 mg/40 µL) was injected into the last left pro-leg of a healthy G. mellonella larva with an insulin 29G U-100 needle to reach a final inoculum of 4 mg/larva. Larvae were placed in Petri dishes containing Whatman paper in a 37°C incubator.
A control group was also included in which M. mycetomatis-infected larvae were treated with PBS or with 1 mg/kg amphotericin B (Fungizone, Bristol Myers Squibb, Utrecht, The Netherlands). […] The treatment was repeated at 28 h post infection and 52 h post infection via different prolegs. The infection was monitored for 10 days.
To compare the survival rates between PBS treatment control and the different experimental groups a log-rank test was performed. All data were processed and performed in GraphPad Prism 10.

[9] = 20 µL of 10 µM at 4, 28 and 52 h post infection
[10] = 20 µL of 20 µM at 4, 28 and 52 h post infection

| Compound | activity at 2 µM [1] [%] | IC50 ([2]; Madurella mycetomatis) [µM] | MIC ([2]; Madurella mycetomatis) [µM] | IC50 ([3]; Madurella mycetomatis, P1) [µM] | MIC ([3]; Madurella mycetomatis, P1) [µM] | IC50 ([4]; Madurella mycetomatis, I1) [µM] | MIC ([4]; Madurella mycetomatis, I1) [µM] | other results |
| --- | --- | --- | --- | --- | --- | --- | --- | --- |
| CCCCC(CC)CNC(=N)NC(=N)NCCCCCCNC(=N)NC(=N)NCC(CC)CCCC (stereo not shown) [Alexidine dihydrochloride] | 4.4 | 1.32 | 2 | 1.78 | > 2 | 0.8 | > 2 | MIC [5]: > 2 µM |
| C[C@@H](c1nc(-c2ccc(C#N)cc2)cs1)[C@](O)(Cn1cncn1)c1cc(F)ccc1F [Isavuconazole] | 2.1 | 0.43 | 1 (≈ 0.437 µg/mL) | < 0.03 | 0.03 (≈ 0.0131 µg/mL) | 0.05 | 0.06 (≈ 0.0262 µg/mL) |  |
| N#C/C(=C1/SC[C@@H](c2ccc(Cl)cc2Cl)S1)n1ccnc1 [Luliconazole] | 1 | < 0.03 | 0.03 (≈ 0.0106 µg/mL) | < 0.03 | 0.03 (≈ 0.0106 µg/mL) | < 0.03 | 0.03 (≈ 0.0106 µg/mL) | MIC [5]: < 0.03 µM; MIC50 [6]: 1 ng/mL (≈ 2.82 nM) |
| C[CH2][Hg][S]c1ccccc1C(=O)[O-].[Na+] [Thimerosal] |  |  |  |  |  |  |  | IC50 [2]: 0.08 µM; MIC [2]: 0.25 µM; IC50 ([3]; strain P1): < 0.03 µM; MIC ([3]; strain P1): 0.03 µM; IC50 ([4]; strain I1): 0.04 µM; MIC ([4]; strain I1): 0.06 µM; Toxicity in G. mellonella larvae at 20 µM ([7]; 20 µL of 20 µM injected, 10 day observation, toxic if more than 20% of larvae died): toxicity was noted; Survival of M. mycetomatis-infected larvae versus PBS [8, 9]: No prolonged survival; log-rank P versus PBS treatment [8, 9]: 0.5242; Average metabolic activity at 2 µM (%) [5]: 1.4% |
| CC(=O)[O][Hg][c]1ccccc1 [Phenylmercuric acetate] |  |  |  |  |  |  |  | IC50 [2]: 1.12 µM; MIC [2]: 2.00 µM; IC50 ([3]; strain P1): < 0.03 µM; MIC ([3]; strain P1): 0.03 µM; IC50 ([4]; strain I1): 0.45 µM; MIC ([4]; strain I1): 0.50 µM; Toxicity in G. mellonella larvae at concentrations as low as 0.5 µM ([7]; tested at 20, 10, 5, 1 and 0.5 µM, 10 day observation): toxic; Average metabolic activity at 2 µM (%) [5]: 2.0% |
| Fc1ccc(C(c2ccccc2)(c2ccccc2F)n2ccnc2)cc1 (stereo not shown) [Flutrimazole] | 0 | 0.92 | 2 (≈ 0.693 µg/mL) | 0.37 | 0.5 (≈ 0.173 µg/mL) | 0.42 | 0.5 (≈ 0.173 µg/mL) |  |
| Oc1c(I)cc(Cl)c2cccnc12 [Clioquinol] | 0 | 1.2 | 2 (≈ 0.611 µg/mL) | 0.38 | 0.5 (≈ 0.153 µg/mL) | 1.7 | 2 (≈ 0.611 µg/mL) | Toxicity in G. mellonella larvae at 20 µM ([7]; in vivo): not toxic; Survival of M. mycetomatis-infected larvae versus PBS [8, 10]: No prolonged survival |
| OCCCNc1cc(-c2ccnc(Nc3cccc(Cl)c3)n2)ccn1 [cgp60474] | 7.4 | 1.55 | 2 (≈ 0.712 µg/mL) | 0.64 | 1 (≈ 0.356 µg/mL) | 0.81 | 1 (≈ 0.356 µg/mL) | Toxicity in G. mellonella larvae at 20 µM ([7]; in vivo): not toxic; Survival of M. mycetomatis-infected larvae versus PBS [8, 10]: No prolonged survival |
| C=C(c1ccccc1OCc1cccc(Cl)c1)n1ccnc1 [Cloconazole HCl] | 1.7 | 0.85 | 1 | 0.74 | 1 | 0.41 | 0.5 |  |
| Clc1ccc(C(Cn2ccnc2)OCc2c(Cl)cccc2Cl)c(Cl)c1 (stereo not shown) [Isoconazole nitrate (Travogen), Isoconazole nitrate] | 1.2 | 1.42 | 2 | 0.06 | 0.5 | 0.36 | 0.5 |  |
| C=C1CCN([C@H](C)[C@](O)(Cn2cncn2)c2ccc(F)cc2F)CC1 [Efinaconazole] | 0 | 0.04 | 0.06 (≈ 0.0209 µg/mL) | < 0.03 | 0.03 (≈ 0.0105 µg/mL) | 0.05 | 0.06 (≈ 0.0209 µg/mL) |  |
